# Reference: patent US20160038597A9, “CARRIER THAT TARGETS FUCOSYLATED MOLECULE-PRODUCING CELLS” (priority 2010, published 2016)
# Experiments:
# ASPC-1 = test: 14C-fucose binding to cells
# Protocol: (§1) Binding of fucose (fucose refers to L-fucose, unless otherwise stated) to the fucosylated sugar chain high-producing cell line ASPC-1 and fucosylated sugar chain low-producing cell line PANC-1 was investigated using radiolabeled fucose.
# (§2) In a 12-well culture plate, 1×10^5 cells were seeded and cultured overnight, and ^14C-fucose (specific activity: 55 mCi/mmol) diluted with BSA-PBS at a concentration of 0-200 nM was added to the cells and cultured at 4° C. for 1 hr. The cells were washed with cold BSA-PBS, lysed by 1% Triton X100/PBS-0.25% trypsin, and the radioactivity of the ^14C-fucose bound to the cell membrane was measured (FIGS. 3 and 4).
# In another experiment, in a 12-well culture plate, 2×10^5 cells were seeded and cultured overnight, 10 nmol of ^14C-fucose (specific activity: 55 mCi/mmol) were added to the cells either singly or together with 1 pmol of fucose, and cultured at 4° C. for 1, 3, or 24 hr. The cells under each condition were washed with cold BSA-PBS, lysed by 1% Triton X100/PBS-0.25% trypsin, and the radioactivity of the ^14C-fucose was measured (FIG. 5).
# PANC-1 = test: 14C-fucose binding to cells; conditions: 14C-fucose 0-200 nM, 4° C., 1 hr
# Protocol: as §1, §2
structure (smiles),measurement,setting,value
"C[C@H](O)[C@@H](O)[C@@H](O)[C@H](O)C=O [fucose, L-fucose]",binding of 14C-fucose in competition with excessive non-labeled fucose,"ASPC-1; 10 nmol 14C-fucose with non-labeled fucose, 4° C., 1, 3 or 24 hr",inhibited
same,binding of fucose to cells (affinity),"ASPC-1; 14C-fucose 0-200 nM, 4° C., 1 hr, compared with PANC-1",affinity is higher
same,binding of fucose to cells,PANC-1,binds to ASPC-1 and PANC-1 via a receptor-like mechanism
